The values that follow come from patent US11608343B2, “Substituted pyrimido[5,4-d]pyrimidines as HER2 inhibitors” (Boehringer Ingelheim International GmbH, priority 2020, dated 2023).

What all share (assay type): cell-based
One experiment deals with T1, HER2 YVMA (Homo sapiens, UniProt P04626, INS775YVMA).
T1 construct: expressed in transfected cells; host or cells: human HEK cells, retroviral transduction, doxycycline-inducible expression
Nature of the experiment: pHER2 (ERBB2) YVMA assay: phosphorylation of HER2 YVMA at Tyr1221/1222 in HEK cells (AlphaScreen Surefire). To be noted: doxycycline induced, 4 h with compound. How it is done:
For the assay, HEK HER2 YVMA cells are seeded in MEM medium with 10% FBS. 4 hours prior to compound addition, HER2 YVMA expression is induced using 1 μg/mL Doxycycline. […] Subsequently, 60.000 cells/well in 60 μL are added. Cells are incubated with compound for 4 h at 37° C. […] The mixture is incubated at a temperature of 20-25° C. with shaking (700 rpm) for 20 min. After centrifugation, 4 μL of the lysate are transferred to Proxiplates. […] Plates are shaken for 1 min (1400 rpm) and incubated for 2 h at a temperature of 20-25° C. in the dark. […] Plates are shaken for 1 min (1400 rpm) and incubated for 2 h at a temperature of 20-25° C. in the dark. Plates are subsequently analyzed using an Envision reader platform. […] IC50 values are computed from these values in the MEGASTAR IC50 application using a 4 parametric logistic model. […] The results of the assay are provided as IC50 values.
On the technique in general: Bead proximity is the source of the signal in Alpha formats.

The subject of experiment [1] is Ba/F3 cells expressing EGFR WT. Nature of the experiment: Ba/F3 proliferation assay, EGFR WT (EGF dependent), CellTiter-Glo. Particulars: Mus musculus, BaF3, EGF instead of IL-3, 72 h, read-out: GI50 BAF3 EGF dep. How it is done:
(§1) Ba/F3 Cell Model Generation and Proliferation Assays
(§2) Plasmids containing HER2 mutants and EGFR WT were obtained from GeneScript. To generate EGFR/HER2-dependent Ba/F3 models, Ba/F3 cells are transduced with retroviruses containing vectors that harbor EGFR WT, HER2 WT or HER2 mutants (YVMA). Platinum-E cells (Cell Biolabs) are used for retrovirus packaging. Retrovirus is added to Ba/F3 cells. To ensure infection, 4 μg/mL polybrene is added and cells are spin-infected. Infection efficiency is confirmed by measuring GFP-positive cells using a cell analyzer. Cells with an infection efficiency of 10% to 20% are further cultivated and puromycin selection with 1 μg/mL is initiated. As a control, parental Ba/F3 cells are used to assess the selection status. Selection is considered successful when parental Ba/F3 cells cultures die. To evaluate the transforming potential of HER2 mutations, the growth medium is no longer supplemented with IL-3. Ba/F3 cells harboring the empty vector are used as a control. A switch from IL-3 to EGF is performed for Ba/F3 cells expressing EGFR WT known for its dependency on EGF ligand. Approximately ten days before conducting the experiments, puromycin is left out. For proliferation assays (data in tables 10 and 12), Ba/F3 cells are seeded into 96-well plates at 5×10^3 cells/100 μL in growth media. Compounds are added by using a HP D3000 Digital Dispenser. All treatments are performed in technical triplicates. Treated cells are incubated for 72 h at 37° C. with 5% CO2. A CellTiter-Glo® Luminescent Cell Viability Assay (Promega) is performed and chemoluminescence is measured by using the multilabel Plate Reader VICTOR X4. The raw data are imported into and analyzed with the Boehringer Ingelheim proprietary software MegaLab (curve fitting based on the program PRISM, GraphPad Inc.).

A further experiment has as its target T2, EGFR wild type (WT) (Homo sapiens, UniProt P00533).
T2 construct: expressed in transfected cells; host or cells: human HEK cells (ATCC CRL-1573), retroviral transduction
Nature of the experiment: pEGFR assay: phosphorylation of EGFR at Tyr1068 in HEK cells expressing EGFR WT (AlphaScreen Surefire). To be noted: 4 h with compound. How it is done: This assay quantifies the phosphorylation of EGFR at Tyr1068 and is used to measure the inhibitory effect of compounds on the transgenic EGFR wild type (WT) protein expressed in HEK cells.
Transduced cells are selected using puromycin. p-EGFR Tyr1068 is determined using the AlphaScreen Surefire pEGF Receptor (Tyr1068) Assay (PerkinElmer, TGRERS). For the assay, HEK EGFR WT cells are seeded in MEM medium with 10% FBS. […] Subsequently, 60.000 cells/well in 60 μL are added. Cells are incubated with compound for 4 h at 37° C. […] The mixture is incubated at a temperature of 20-25° C. with shaking (700 rpm) for 20 min. After centrifugation, 4 μL of the lysate are transferred to Proxiplates. […] Plates are shaken for 1 min (1400 rpm) and incubated for 2 h at a temperature of (20-25° C.) in the dark. […] Plates are shaken for 1 min (1400 rpm) and incubated for 2 h at a temperature of (20-25° C.) in the dark. Plates are subsequently analyzed using an Envision reader platform. […] IC50 values are computed from these values in the MEGASTAR IC50 application using a 4 parametric logistic model.
This cellular phospho-EGFR (pEGFR) compound dose-response assay quantifies the phosphorylation of EGFR at Tyr1068 in HEK cells expressing EGFR WT. The results of the assay are provided as IC50 values.

Experiment [2] has as its system EGFR WT dependent A431 cells. Nature of the experiment: Tumor cell line proliferation assay, EGFR WT dependent A431 cells, CellTiter-Glo. To be noted: Homo sapiens, A-431, 72 h, read-out: GI50 A431 EGFR wt amp. Here is the method: (§3) For proliferation assays, NCI-H2170 (HER2 wild type), NCI-H2170 HER2 YVMA and EGFR WT dependent A431 cells are used. NCI-H2170 HER2 YVMA or NCI-H2170 cells are seeded into 96-well plates at 750 cells/60 μL in growth media (RPMI ATCC+10% FCS, +Penicillin/Streptomycin). […] Compounds are added by using a HP D3000 Digital Dispenser one day after plating the cells. All treatments are performed in technical triplicates. Treated cells are incubated for 72 h at 37° C. with 5% CO2. CellTiter-Glo® Luminescent Cell Viability Assay (Promega) is performed and chemoluminescence is measured by using the multilabel Plate Reader VICTOR X4. The raw data are imported into and analyzed with the Boehringer Ingelheim proprietary software MegaLab (curve fitting based on the program PRISM, GraphPad Inc.).
Background: Cellular ATP, detected with luciferase, serves as a proxy for viable cell number.

In the next experiment the test system is Ba/F3 cells HER2 WT. Nature of the experiment: Ba/F3 proliferation assay, HER2 WT, CellTiter-Glo. To be noted: Mus musculus, BaF3, 72 h. How it is done: as §1, §2
In experiment [3] the test system is NCI-H2170 (HER2 wild type) cells. Nature of the experiment: Tumor cell line proliferation assay, NCI-H2170 (HER2 wild type), CellTiter-Glo. Particulars: Homo sapiens, 72 h, read-out: GI50 NCI H-2170 HER2 wt amp. How it is done:
as §3

Experiment [4] relates to NCI-H2170 HER2 YVMA cells. Nature of the experiment: Tumor cell line proliferation assay, NCI-H2170 HER2 YVMA, CellTiter-Glo. To be noted: Homo sapiens, 72 h, read-out: GI50 NCI H-2170 HER2 YVMA.
Description: HER2 YVMA Tumor Cell Line Model Generation and Proliferation Assays
Homology-directed genome engineering is employed to insert a 12 nucleotide sequence encoding YVMA into Exon 20 of the genomic HER2 locus in NCI-H2170 cells. […] The DNA template containing the HER2 exon 20 YVMA insertion variant was obtained from GenScript. PCR followed by Sanger sequencing is used to confirm the presence of the 12-nucleotide insertion in HER2 Exon 20 resulting in the YVMA amino acid duplication.
as §3

Experiment [5] concerns Ba/F3 cells HER2 mutants (YVMA). Nature of the experiment: Ba/F3 proliferation assay, HER2 YVMA, CellTiter-Glo. Particulars: Mus musculus, BaF3, 72 h. Here is the method:
as §1, §2

T2 sequence (P00533 25-1210): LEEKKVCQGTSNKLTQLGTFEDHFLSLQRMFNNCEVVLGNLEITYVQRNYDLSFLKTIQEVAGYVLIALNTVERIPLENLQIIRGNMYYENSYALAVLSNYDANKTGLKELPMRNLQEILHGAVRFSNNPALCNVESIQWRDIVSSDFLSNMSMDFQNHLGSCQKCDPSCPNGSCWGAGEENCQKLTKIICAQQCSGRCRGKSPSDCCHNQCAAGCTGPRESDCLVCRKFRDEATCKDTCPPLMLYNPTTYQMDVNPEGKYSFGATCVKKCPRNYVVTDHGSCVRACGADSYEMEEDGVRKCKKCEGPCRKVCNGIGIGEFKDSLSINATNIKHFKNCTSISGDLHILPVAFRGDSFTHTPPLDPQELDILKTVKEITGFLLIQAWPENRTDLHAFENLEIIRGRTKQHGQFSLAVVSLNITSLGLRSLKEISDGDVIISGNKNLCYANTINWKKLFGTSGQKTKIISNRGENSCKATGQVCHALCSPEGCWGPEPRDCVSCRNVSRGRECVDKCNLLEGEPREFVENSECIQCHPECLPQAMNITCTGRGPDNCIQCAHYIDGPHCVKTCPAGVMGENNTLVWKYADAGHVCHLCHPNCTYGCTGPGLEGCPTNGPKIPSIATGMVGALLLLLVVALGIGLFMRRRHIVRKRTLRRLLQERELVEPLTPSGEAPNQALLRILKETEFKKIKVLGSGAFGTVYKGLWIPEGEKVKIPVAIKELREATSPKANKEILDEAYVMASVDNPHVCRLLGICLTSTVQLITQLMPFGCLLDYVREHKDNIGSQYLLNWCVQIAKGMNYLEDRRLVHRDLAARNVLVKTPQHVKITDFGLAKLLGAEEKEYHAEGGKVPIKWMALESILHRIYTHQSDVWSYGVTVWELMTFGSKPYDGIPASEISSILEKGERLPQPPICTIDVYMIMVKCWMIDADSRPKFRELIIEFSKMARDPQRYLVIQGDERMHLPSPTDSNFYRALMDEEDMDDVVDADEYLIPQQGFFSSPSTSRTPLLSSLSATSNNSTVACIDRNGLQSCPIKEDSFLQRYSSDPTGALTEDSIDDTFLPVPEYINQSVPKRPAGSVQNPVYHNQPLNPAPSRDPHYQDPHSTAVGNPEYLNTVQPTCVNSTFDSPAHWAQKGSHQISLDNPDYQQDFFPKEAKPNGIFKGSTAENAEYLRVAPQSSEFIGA
T1 sequence (P04626 with tags, fused parts or gaps INS775YVMA): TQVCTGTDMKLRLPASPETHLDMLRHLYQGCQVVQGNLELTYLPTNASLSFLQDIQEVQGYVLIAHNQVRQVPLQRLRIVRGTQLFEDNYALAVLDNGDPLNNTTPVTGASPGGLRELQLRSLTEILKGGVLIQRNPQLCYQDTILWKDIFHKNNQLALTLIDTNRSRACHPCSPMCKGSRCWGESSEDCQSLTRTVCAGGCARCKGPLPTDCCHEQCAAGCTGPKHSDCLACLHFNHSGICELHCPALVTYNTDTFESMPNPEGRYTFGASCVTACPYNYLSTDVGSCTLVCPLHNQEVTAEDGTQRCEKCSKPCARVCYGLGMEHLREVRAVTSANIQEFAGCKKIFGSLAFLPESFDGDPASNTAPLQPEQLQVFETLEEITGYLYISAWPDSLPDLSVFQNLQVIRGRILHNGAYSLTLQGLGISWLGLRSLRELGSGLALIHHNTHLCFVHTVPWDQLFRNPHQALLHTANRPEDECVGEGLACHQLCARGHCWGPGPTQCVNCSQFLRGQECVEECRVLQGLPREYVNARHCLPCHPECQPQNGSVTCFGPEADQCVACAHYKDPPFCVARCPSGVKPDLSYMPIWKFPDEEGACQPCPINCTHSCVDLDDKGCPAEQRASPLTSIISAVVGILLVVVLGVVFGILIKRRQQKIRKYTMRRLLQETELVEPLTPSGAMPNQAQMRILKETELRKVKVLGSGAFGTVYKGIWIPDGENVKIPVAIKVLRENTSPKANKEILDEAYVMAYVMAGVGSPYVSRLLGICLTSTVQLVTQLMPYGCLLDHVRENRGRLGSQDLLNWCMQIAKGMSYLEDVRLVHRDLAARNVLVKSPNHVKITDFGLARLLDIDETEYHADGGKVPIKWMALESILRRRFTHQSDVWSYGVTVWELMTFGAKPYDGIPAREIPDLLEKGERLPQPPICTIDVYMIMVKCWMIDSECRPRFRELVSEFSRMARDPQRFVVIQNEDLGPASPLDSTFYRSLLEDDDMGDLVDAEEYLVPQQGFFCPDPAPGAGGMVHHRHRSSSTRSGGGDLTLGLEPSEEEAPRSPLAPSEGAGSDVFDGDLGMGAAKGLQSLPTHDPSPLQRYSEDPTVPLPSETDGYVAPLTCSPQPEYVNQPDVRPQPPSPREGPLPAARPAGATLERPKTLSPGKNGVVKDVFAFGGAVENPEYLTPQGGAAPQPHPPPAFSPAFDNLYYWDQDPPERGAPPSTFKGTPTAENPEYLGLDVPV

As a reminder, the IC50 is the concentration that gives 50% inhibition. In general, GI50 refers to the concentration at which growth is held to half of that of the control. As for `C=CC(=O)N1CC[C@H](Nc2ncc3ncnc(Nc4ccc(Oc5ccn6ncnc6c5)c(C)c4)c3n2)C1` [Example I-17], the IC50 was found to be 2 nM on HER2 YVMA and 94 nM on EGFR wild type (WT). Besides, the GI50 in experiment [1] was 1100 nM; in experiment [2], > 2000 nM; with Ba/F3 cells HER2 WT, 2 nM; in experiment [3], 9 nM; in experiment [4], 39 nM; in experiment [5] it was 14 nM.
Consider `C=CC(=O)N1CC(Nc2ncc3ncnc(Nc4ccc(Oc5ccn6ncnc6c5)c(C)c4)c3n2)C1` [Example I-19], for which the IC50 was found to be 8 nM at HER2 YVMA and 41 nM at EGFR wild type (WT). The GI50 in experiment [1] amounted to 206 nM; in experiment [2], 752 nM; with Ba/F3 cells HER2 WT, 2 nM; in experiment [3], 8 nM; in experiment [4], 34 nM; in experiment [5], 11 nM.
In the case of `Cc1cc(Nc2ncnc3ccc(NC4=NC(C)(C)CO4)cc23)ccc1Oc1ccn2ncnc2c1` [Tucatinib, reference compound], the IC50 on HER2 YVMA stood at 4 nM; on EGFR wild type (WT), 1410 nM. Moreover, the 50% growth inhibitory concentration (GI50) in experiment [1] came to 2970 nM; in experiment [2], 4220 nM; with Ba/F3 cells HER2 WT it was 10 nM; in experiment [3], 58 nM; in experiment [4], 798 nM; in experiment [5], 338 nM.
For `C=CC(=O)Nc1cccc(-n2c(=O)c(Oc3ccc(F)cc3F)cc3cnc(Nc4cnn(C)c4)nc32)c1` [WO 2019/046775 Comp. 2, reference compound], the IC50 is 11 nM on HER2 YVMA and 7 nM at EGFR wild type (WT). For the same molecule, the GI50 was found to be 13 nM in experiment [1]; 16 nM in experiment [2]; 3 nM with Ba/F3 cells HER2 WT; 22 nM in experiment [3]; 34 nM in experiment [4]; 14 nM in experiment [5].
